Values quoted from earlier work as cited in patent US8703719B1, “Method and composition for improved muscle performance” (Bio-Engineered Supplements and Nutrition, Inc., priority 2009, dated 2014).

Settings: oral; weight training individuals

Structure (SMILES): C[N+](C)(C)CC(=O)[O-] [trimethylglycine (betaine), Trimethylglycine]
- increase in bench-throw power compared with placebo: 16%
- increase in isometric bench-press force compared with placebo: 28%
